Results reported in US12359242B2, “Chemical platform assisted proximity capture (CAP-C)” (The University of Chicago, priority 2018, dated 2025).

System: mouse embryonic stem cells (mESCs)
Test: CAP-C with G5 dendrimers on mESC samples treated with transcription elongation inhibitors
Assay type: cell-based
Conditions: for peaks originally called in the control sample that remained: second time point; for contacts in 10 kb resolution contact matrix: mESC; for contact probability between distance-scaled bins 2-7, loop and non-loop domains: versus G5-control
From the text: The inventors then diffuse dendrimers into the cell nucleus and expose these cells to UV irradiation (FIG. 1A). The formaldehyde fixing is then reversed, and DNA-bound proteins are removed with protease to expose all DNA motifs, the dendrimer-DNA complexes are subsequently purified with ethanol precipitation. The purified dendrimer-DNA complexes are then subjected to MboI restriction digestion and end-filling with biotin-bearing DNA, followed by ligation under ultra-diluted solution, biotin capture and high-throughput sequencing (FIG. 1A). Dendrimers with a defined size were used for each CAP-C experiment.
Inhibition of transcription reduces supercoiling and leads to global loss of chromatin contacts. Chromatin topology highly associates with supercoiling, and supercoiling domains have been proposed and identified. […] Motivated by a relationship between transcription-induced supercoiling and domain organization, the inventors next examined whether transcription inhibition affects chromatin architecture. The inventors explored two different transcription elongation inhibitors, flavopiridol and α-amanitin. Reduced levels and rates of supercoiling have been observed upon transcription inhibition. Thus, the inventors performed time-series CAP-C experiments using G5 dendrimers to crosslink mESC samples treated with 2 μM flavopiridol for 1 h and 6 h, as well as samples treated with 4 μg/ml of α-amanitin for 6 h and 12 h, respectively.
The signals of these peaks were, however, weakly attenuated (FIG. 5A). Because these inhibitor-treated and G5-control samples are low-resolution contact maps, the inventors applied Aggregate Peak Analysis (APA) of the peaks called in the deep sequenced CAP-C dataset. […] The inventors plotted the mean contact maps of 103-263 loop-domains (median length: 170 Kb) shared between the control and inhibitor-treated samples by rescaling them into 10 bins (i.e. contact domains in G5-control overlapping loops that are shared between control and inhibitor-treated samples). […] The inventors also quantified these maps into a contact probability vs distance-scaled bins line-plot for all loop domains, non-loop domains and randomly permutated domains. […] Increasing contact frequencies identified at corners of inhibitor-treated loop-domains (bins 8-10) indicate the presence as well as attenuation of peaks from G5-control (FIG. 5E). This is in stark contrast to the absence of such an increase in non-loop domains and randomly permutated domain boundaries.

## CN1CC[C@H](c2c(O)cc(O)c3c(=O)cc(-c4ccccc4Cl)oc23)[C@H](O)C1 [flavopiridol]
6 hr treatment
  peaks originally called in the control sample that remained: more than half
flavopiridol-treated samples
  loops (APA and meta-analysis): attenuated but preserved
2 μM flavopiridol for 1 h and 6 h
  contacts in 10 kb resolution contact matrix: profound decrease in contacts
Transcription inhibitor-treated vs control
  contacts over 1 Mb (relative contact frequency vs distance): slightly strong depletion
  contact probability between distance-scaled bins 2-7, loop and non-loop domains: same trends

## CC[C@H](C)[C@@H]1NC(=O)CNC(=O)[C@@H]2Cc3c([nH]c4cc(O)ccc34)[S+]([O-])C[C@@H](NC(=O)CNC1=O)C(=O)N[C@@H](CC(N)=O)C(=O)N1C[C@H](O)C[C@H]1C(=O)N[C@@H]([C@@H](C)[C@@H](O)CO)C(=O)N2 (stereo in doubt) [α-amanitin]
6 h and 12 h treated samples
  APA scores versus control: greater
12 hr treatment
  peaks originally called in the control sample that remained: more than half
4 μg/ml α-amanitin for 6 h and 12 h
  contacts in 10 kb resolution contact matrix: profound decrease in contacts
  contact probability between distance-scaled bins 2-7, loop and non-loop domains: general decrease
